Measured values: patent US20230043678A1, “USE OF 5-METHYLTETRAHYDROFOLATE” (priority 2019, published 2023)
Like-named read-outs stand apart in the source and are kept apart here.

Key:
zebrafish embryos [1] = system: zebrafish embryos
Procedure: Each experiment was conducted in triplicate. Zebrafish embryos were administrated at 2 h post fertilization (2 hpf) and termination was conducted at 72 hpf. The number of deaths in each group was recorded at 8, 24, 48 and 72 hpf. No food was fed during a dosing period, and the dead embryos were cleaned up in time.

[2] = system: transcription factors (Nkx2.5, amhc, vmhc, hand2, has2, mef2a, mef2c, bmp2b, ephrinB2, ephB4) in zebrafish embryos; experiment: qRT-PCR expression of transcription factors during development of zebrafish embryos (Example 4); assay type: in vivo; conditions: 8 mM L-5-MTHF-Ca, 24 and 48 hpf
Procedure: In order to explore an effect of folic acid on epigenetics during development of the zebrafish embryos, the zebrafish embryos at different developmental stages were collected for testing. […] A fluorescent dye SYBR Green was used in the qRT-PCR experiment. The qRT-PCR was conducted according to the instructions of an SYBR Green qPCR Master Mix kit and a detection was conducted on an ABI (HT 7900) PCR instrument. […] An expression of β-actin was used as an internal reference and relative expression levels of other genes were calculated by a ΔΔCt method.

zebrafish embryos [3] = conditions: 30 mM HCHO + 10 mM L-5-MTHF-Ca
heart of fetal mice = experiment: Effects of folic acid and 5-methyltetrahydrofolate on heart development of fetal/neonatal mice, histology (Example 10)
Procedure: 75 7-week-old female C57BL/6J mice and 25 8-week-old male C57BL/6J mice were provided by Shanghai Lingchang Biotechnology Co., Ltd. with a certificate number of SCXK (Shanghai) 2018-0003. […] The female mice were randomly divided into 5 groups according to body weight: a solvent control group, a folic acid (151.66 μg/kg) group, a folic acid (303.32 μg/kg) group, a calcium 5-methyltetrahydrofolate (converted to folic acid, 151.66 μg/kg) group and a calcium 5-methyl tetrahydrofolate (converted to folic acid, 303.32 μg/kg) group. 1.1275 unit mass of the calcium 5-methyltetrahydrofolate equaled to 1 unit mass of the folic acid.
15 mice were in each group and numbered by a toe clipping method. The mice were intragastrically administrated once a day on the second day after grouping. One week after the pre-administration, male and female mice were caged at a ratio of […], a vaginal plug was observed every day from the next day, and a day when the vaginal plug was seen was recorded as day 0.5 of pregnancy. After 14 days of caging, the female mice stopped the administration, the male mice were removed, and the pregnant female mice were fed alone until litter.
After the detection, thoracic and abdominal cavities of the mice were dissected, cardiac morphology and beating were observed under a stereoscopic microscope (SMZ168, Motic, Xiamen, Fujian, China), and photographs and video recordings were taken (Motic Image Plus 3.0, Motic, Xiamen, Fujian, China). The mice were sacrificed and the hearts, the livers, the kidneys and the lungs were harvested. The hearts and the livers of the neonatal mice were selected from each group and fixed with 4% paraformaldehyde, the fixed hearts and livers were embedded in paraffin, the embedded hearts and livers were sliced and the slices were stained with H&E. A half of the other tissues were immersed in RNA later for fixation and the other half were directly immersed in liquid nitrogen and frozen for a subsequent experiment.
1-day-old neonatal mice were sacrificed, the hearts were taken and fixed with 4% paraformaldehyde, the fixed hearts were embedded in paraffin, the embedded hearts were sliced, the slices were stained with H&E and pictures were taken under a normal microscope.

zebrafish embryos [4] = conditions: in vivo
Procedure: A table was listed below for details.
5-Selected concentrations of methyltetrahydrofolate in the experiment were recorded in the table.

zebrafish embryos [5] = system: zebrafish embryos; remark: listed apart in the source
Procedure: Transgenic zebrafish (fli-1:EGFP) were from the Model Animal Research Center of Nanjing University. Adult zebrafish aged less than 1 were used for experiment and fed at a water pH value of 7±0.2, a temperature around 28° C. and a ratio of illumination to darkness of 14 h:10 h, and with Artemia salina eggs twice a day. Three zebrafish, one female, two males, were placed in a spawning box the night before and eggs were collected the next morning. Fish eggs were placed in an embryo culture medium (prepared with 0.2 g/L of sea salt) and cultured at 28° C. […] Dead embryos were cleaned up in time. A phenotype of malformation was observed, the number of all abnormal zebrafish where the malformation was present was recorded and a malformation rate and a rescue rate of each group were calculated. Morphological defects, a heart rate, cardiac morphology and other indicators were observed and evaluated by an SMZ745T inverted stereomicroscope.

zebrafish embryos [6] = conditions: 6 mM FA + 10 mM L-5-MTHF-Ca
Procedure: Transgenic zebrafish (fli-1:EGFP) were from the Model Animal Research Center of Nanjing University. Adult zebrafish aged less than 1 were used for experiment and fed at a water pH value of 7±0.2, a temperature around 28° C. and a ratio of illumination to darkness of 14 h:10 h, and with Artemia salina eggs twice a day. Three zebrafish, one female, two males, were placed in a spawning box the night before and eggs were collected the next morning. Fish eggs were placed in an embryo culture medium (prepared with 0.2 g/L of sea salt) and cultured at 28° C. […] Dead embryos were cleaned up in time. Each experiment was conducted in triplicate. […] A phenotype of malformation was observed, the number of all abnormal zebrafish where the malformation was present was recorded and a malformation rate and a rescue rate of each group were calculated. Morphological defects, a heart rate, cardiac morphology and other indicators were observed and evaluated by an SMZ745T inverted stereomicroscope.

zebrafish embryos [7] = system: zebrafish embryos; remark: listed apart in the source
Procedure: Transgenic zebrafish (fli-1:EGFP) were from the Model Animal Research Center of Nanjing University. Adult zebrafish aged less than 1 year were used for experiment and fed at a water pH value of 7±0.2, a temperature around 28° C. and a ratio of illumination to darkness of 14 h:10 h, and with Artemia salina eggs twice a day. Three zebrafish, one female, two males, were placed in a spawning box the night before and eggs were collected the next morning. Fish eggs were placed in an embryo culture medium (prepared with 0.2 g/L of sea salt) and cultured at 28° C.
Zebrafish embryos were cultured in 24-well plates with 10 embryos per well at 2 hpf in a dosing manner, drug solutions of the above concentrations in the table were separately added, termination was conducted at 8 hpf, and the embryos were washed and transferred to an egg solution for continuous culture to 72 hpf. Dead embryos were cleaned up in time. Each experiment was conducted in triplicate.
A phenotype of malformation was observed, the number of all abnormal zebrafish where the malformation was present was recorded and a malformation rate and a rescue rate of each group were calculated. Morphological defects, a heart rate, cardiac morphology and other indicators were observed and evaluated by an SMZ745T inverted stereomicroscope.

zebrafish embryos [8] = experiment: Teratogenic effect of folic acid on zebrafish embryos (Example 3)
fetal rat heart = experiment: Effects of homocysteine on fetal rats, heart slices (Example 7); assay type: in vivo, SD rats
Procedure: In order to investigate an effect of homocysteine on the fetal heart, SD rats were selected, male and female rats were mated in a cage at a ratio of 1:1 overnight, a vaginal plug was checked the next morning, a day when the vaginal plug was found was regarded as day 0 of pregnancy, and pregnant mice were fed alone. A 1% homocysteine (HCY) solution was used, an injection volume was calculated according to an injection volume of 1 ml/100 g, a dose was (100 mg/kg/d), on the seventh day of pregnancy, the pregnant mice were intraperitoneally injected once a day until the 17th day of pregnancy and injected once on the 19th day of pregnancy, no fluid was withdrawn during each injection, the pregnant mice were subjected to chloral hydrate anesthesia on the 20th day of pregnancy, and a fetus was obtained by cesarean section. High-dose HCY model pregnant mice were investigated by the same method as above, the dose was 200 mg/kg/d and the other conditions were the same. Fetal rats were dissected, the heart was taken and sliced for observation, and the results were as follows.

[9] = Group D: calcium 5-methyltetrahydrofolate (converted to folic acid, 151.66 μg/kg) intragastric
[10] = Group E: calcium 5-methyltetrahydrofolate (converted to folic acid, 303.32 μg/kg) intragastric

With “Calcium 5-Methyltetrahydrofolate [L-5-MTHF-Ca]” the embryo survival rate (zebrafish embryos [1]; 10 mM L-5-MTHF-Ca, dosed 2 hpf to 72 hpf) was “did not affect an embryo survival rate”, the “heart rate of zebrafish embryos” value (zebrafish embryos [1]; 10 mM, 48 hpf, vs control group) was “no difference in the heart rate” and the “heart shape and lower intestinal network blood vessels” value (zebrafish embryos [1]; 10 mM, 72 hpf) was “the heart in each group had a normal shape and the lower intestinal network blood vessels developed normally”. The “body length of zebrafish embryos” value (zebrafish embryos [1]; 10 mM, 72 hpf, vs control group) was “no difference”, the “expressions of the various genes vs normal control” value [2] was “did not affect the expressions of the various genes” and the “pericardium edema and heart rate (48 hpf), body length (72 hpf)” value (zebrafish embryos [3]) was “had no effect on the pericardium edema, the heart rate and the body length of the zebrafish”. The “survival rate of embryos, rescue” value (zebrafish embryos [3]) was “can rescue an effect of the 30 mM HCHO on a survival rate of the embryos”, the embryo development (zebrafish embryos [3]; 8 hpf) was “delayed development of the zebrafish embryos” and the “heart shape and lower intestinal network blood vessels” value (zebrafish embryos [3]; 72 hpf) was “normal heart shape and normal development of lower intestinal network blood vessels”. For the same compound, the “congenital heart disease in fetal mice” value (heart of fetal mice; 5-methyltetrahydrofolate group) was “no congenital heart disease is found”, the Development delay (heart of fetal mice; [9]) was 0 and the Malformation cases (heart of fetal mice; [9]) was 0. For the same compound, the Sparse myocardial trabeculae (heart of fetal mice; [9]) was 0, the Ventricular defects/septal defects (heart of fetal mice; [9]) was 0 and the Development delay (heart of fetal mice; [10]) was 0. The Malformation cases (heart of fetal mice; [10]) was 0, the Sparse myocardial trabeculae (heart of fetal mice; [10]) was 0 and the Ventricular defects/septal defects (heart of fetal mice; [10]) was 0. The “heart slices (H&E) of 1-day-old neonatal mice” value (heart of fetal mice; low-dose and high-dose methyltetrahydrofolate groups) was “had intact myocardium”, the “10 s heart rate (48 hpf), body length and malformation (72 hpf), rescue” value (zebrafish embryos [4]) was “could rescue malformed phenotypes of the bradycardia, the shortened body length and abnormally curved bodies” and the “rescue of embryonic development malformations” value (zebrafish embryos [4]) was “could rescue embryonic development malformations induced by 2 and 4 mM Pb(NO3)2”. For the same compound, the “survival rate of embryos, rescue” value (zebrafish embryos [4]) was “did not rescue an effect of the 2 and 4 mM Pb(NO3)2 on a survival rate of the embryos”, the embryo phenotype (zebrafish embryos [4]; zebrafish) was “did not lead to obvious embryonic development delay, malformation and death” and the “pericardium edema and 10 s heart rate (48 hpf), body length (72 hpf), rescue” value (zebrafish embryos [4]; zebrafish) was “could rescue malformed phenotypes of the pericardium edema, the bradycardia and the shortened body length of the zebrafish to a certain extent”. The “pericardium edema and 10 s heart rate (48 hpf), body length (72 hpf), rescue” value (zebrafish embryos [5]; 1.5 mM MTX + 10 mM L-5-MTHF-Ca) was “could rescue malformed phenotypes of the pericardium edema, the bradycardia and the shortened body length”, the “rescue of embryonic development malformations” value (zebrafish embryos [5]; 1.5 mM MTX + 10 mM L-5-MTHF-Ca) was “could rescue embryonic development malformations induced by 1.5 mM MTX” and the “survival rate of embryos, rescue” value (zebrafish embryos [5]; 1.5 mM MTX + 10 mM L-5-MTHF-Ca) was “no significant difference from that of a control group”. The Malformation rate (zebrafish embryos [5]; 1.5 mM MTX after adding L-5-MTHF-Ca (10 mM)) was 10%, the “10 s heart rate (48 hpf) and body length (72 hpf), rescue” value (zebrafish embryos [6]) was “could rescue malformed phenotypes of the bradycardia and the shortened body length” and the “survival rate of embryos, rescue” value (zebrafish embryos [6]) was “can rescue an effect of the 6 mM FA on a survival rate of the embryos”. For the same compound, the embryo development (zebrafish embryos [6]; 8 hpf) was “delayed development of the zebrafish embryos”, the embryo phenotype (zebrafish embryos [6]; 24 hpf) was “alleviated the malformation” and the embryo phenotype (zebrafish embryos [6]; 48 hpf) was “led to pericardium edema, dyspigmentation, and intersegmental vascular hypoplasia of zebrafish”. For the same compound, the “pericardium edema, rescue” value (zebrafish embryos [6]; 48 hpf) was “could not rescue the pericardium edema”, the embryo phenotype (zebrafish embryos [6]; 72 hpf) was “led to developmental disorders of lower intestinal network blood vessels of the zebrafish” and the “rate of pericardium edema, rescue” value (zebrafish embryos [7]; 0.6% EtOH + 10 mM L-5-MTHF-Ca, 48 hpf) was “could reduce a rate of pericardium edema”. For the same compound, the “heart rate, rescue” value (zebrafish embryos [7]; 0.9% and […] EtOH + 10 mM L-5-MTHF-Ca, 48 hpf) was “could relieve bradycardia”, the “survival rate, rescue” value (zebrafish embryos [7]; […] EtOH + 10 mM L-5-MTHF-Ca) was “could rescue the survival rate” and the “pericardium edema, rescue” value (zebrafish embryos [7]; […] EtOH + 10 mM L-5-MTHF-Ca, 48 hpf) was “had no effect on relieving pericardium edema”. For the same compound, the “lower intestinal network blood vessels, rescue” value (zebrafish embryos [7]; […] EtOH + 10 mM L-5-MTHF-Ca, 72 hpf) was “failed to ameliorate the defect”, the “body length, rescue” value (zebrafish embryos [7]; high concentration ([…]) of EtOH + 10 mM L-5-MTHF-Ca) was “relieve a shortened body length” and the “survival rate of zebrafish” value (zebrafish embryos [8]; 10 mM L-5-MTHF-Ca in 20 mM NaHCO3, 2-72 hpf) was “did not affect the survival rate of zebrafish”. For the same compound, the embryo coverage (zebrafish embryos [8]; 10 mM L-5-MTHF-Ca, 8 hpf) was “covered completely” and the “heart shape and lower intestinal network blood vessels” value (zebrafish embryos [8]; 10 mM L-5-MTHF-Ca, 72 hpf) was “normal heart shape and normal development of lower intestinal network blood vessels”.
For N[C@@H](CCS)C(=O)O [HCY, homocysteine], the “fetal rat heart histology” value (fetal rat heart; high-dose HCY 200 mg/kg/d intraperitoneal to pregnant rats) was “led to red staining of muscle cytoplasm of the fetal rats” and the “fetal rat heart histology” value (fetal rat heart; low-dose HCY 100 mg/kg/d intraperitoneal to pregnant rats) was “led to widening of myocardial trabeculae in fetal rats and atria was filled with red blood cells”.
